{"source": "patent US11053206B2", "about": "“Hydrofluorocarboximidate and methods of making and using the same” (3M INNOVATIVE PROPERTIES COMPANY, priority 2017, dated 2021)", "assay": "Thermal stability (purity by GC-FID after heating with absorbent)", "assay_type": "physicochemical", "conditions": "initial purity 97.7%", "procedure": "The samples were stirred for 24 h at 50° C. and then analyzed for purity by GC-FID. The % purity EX-6 initially was 97.7%. Shown in Table 2 below are the % purity after the thermal stability test. All of the results are within error of the test method.", "data": [{"smiles": "CO/C(=N\\C(F)(F)C(F)(F)C(F)(F)F)C(F)(F)C(F)(F)F", "note": "[EX-6, methyl 2,2,3,3,3-pentafluoro-N-(perfluoropropyl)propanimidate]", "values": [{"measurement": "Purity (%) after thermal stability test", "setting": "100 mg 4 Angstrom Molecular Sieves, 1 g stirred 24 h at 50° C.", "value": 98.0, "unit": "%"}, {"measurement": "Purity (%) after thermal stability test", "setting": "100 mg Activated Carbon, 1 g stirred 24 h at 50° C.", "value": 98.2, "unit": "%"}, {"measurement": "Purity (%) after thermal stability test", "setting": "100 mg Basic Alumina, 1 g stirred 24 h at 50° C.", "value": 98.0, "unit": "%"}, {"measurement": "Purity (%) after thermal stability test", "setting": "100 mg K2CO3, 1 g stirred 24 h at 50° C.", "value": 97.9, "unit": "%"}, {"measurement": "Purity (%) after thermal stability test", "setting": "100 mg Silica Gel, 1 g stirred 24 h at 50° C.", "value": 97.9, "unit": "%"}, {"measurement": "Purity (%) after thermal stability test", "setting": "No absorbent, 1 g stirred 24 h at 50° C.", "value": 97.7, "unit": "%"}]}]}
